What was measured:
Canis familiaris [1] = test: Spermidine Distribution in liver was determined after DESPM dosing of 1.87 mg/kg/day for 28 days in dog(cu dose-52.4) and sacrificed at 10 days PLD(cu dose-52.4 mg/kg); type: ADME, organism-based, Canis lupus familiaris; details: in vivo, 240 h
Rattus norvegicus [2] = test: (§1) Percent reduction was determined by using the ratio of mean of treated animal to that of control animal at a dose of 94 mg/kg; type: functional
Canis familiaris [3] = test: Spermine Distribution in liver was determined after DESPM dosing of 8.0 mg/kg/day for 4.5 days in dog(cu dose-52.4) and sacrificed at 75 days PLD(cu dose-36 mg/kg); type: ADME, organism-based, Canis lupus familiaris; details: in vivo, 1800 h
Canis familiaris [4] = test: MESPM/MEHSPH Distribution in liver was determined after DESPM dosing of 1.87 mg/kg/day for 28 days in dog(cu dose-52.4) and sacrificed at 75 days PLD(cu dose-52.4 mg/kg); type: ADME, organism-based, Canis lupus familiaris; details: in vivo, 1800 h
Rattus norvegicus [5] = test: Weight loss of rat over the 6-h experimental period when a dose of 14.3 mg/kg (35.4 administered; type: functional
Canis familiaris [6] = test: putrescine Distribution in kidney was determined after DESPM dosing of 8.0 mg/kg/day for 4.5 days in dog and sacrificed at 75 days PLD(cu dose-36 mg/kg); type: ADME, organism-based, Canis lupus familiaris; details: in vivo, 1800 h
Canis familiaris [7] = test: Spermine Distribution in liver was determined after DESPM dosing of 6.0 mg/kg/day for 4.5 days in dog(cu dose-52.4) and sacrificed at 10 days PLD(cu dose-27 mg/kg); type: ADME, organism-based, Canis lupus familiaris; details: in vivo, 240 h
Canis familiaris [8] = test: MESPM/MEHSPH Distribution in kidney was determined after DESPM dosing of 4 mg/kg/day for 13 days in dog(cu dose-52.4) and sacrificed at 10 days PLD(cu dose-52 mg/kg); type: ADME, organism-based, Canis lupus familiaris; details: in vivo, 240 h
Rattus norvegicus [9] = test: Stool output of rat over the 6-h collection period when a dose of 9.4 mg/kg (23.3 administered; type: functional
Canis familiaris [10] = test: putrescine Distribution in liver was determined after DESPM dosing of 6.0 mg/kg/day for 4.5 days in dog(cu dose-52.4) and sacrificed at 10 days PLD(cu dose-27 mg/kg); type: ADME, organism-based, Canis lupus familiaris; details: in vivo, 240 h
Canis familiaris [11] = test: putrescine Distribution in kidney was determined after DESPM dosing of 1.87 mg/kg/day for 28 days in dog and sacrificed at 10 days PLD(cu dose-52.4 mg/kg); type: ADME, organism-based, Canis lupus familiaris; details: in vivo, 240 h
Canis familiaris [12] = test: MESPM/MEHSPH Distribution in kidney was determined after DESPM dosing of 1.87 mg/kg/day for 28 days in dog(cu dose-52.4) and sacrificed at 75 days PLD(cu dose-52.4 mg/kg); type: ADME, organism-based, Canis lupus familiaris; details: in vivo, 1800 h
Canis familiaris [13] = test: Spermidine Distribution in kidney was determined after DESPM dosing of 4 mg/kg/day for 13 days in dog(cu dose-52.4) and sacrificed at 75 days PLD(cu dose-52 mg/kg); type: ADME, organism-based, Canis lupus familiaris; details: in vivo, 1800 h
Canis familiaris [14] = test: Spermine Distribution in liver was determined after DESPM dosing of 4 mg/kg/day for 13 days in dog(cu dose-52.4) and sacrificed at 10 days PLD(cu dose-52 mg/kg); type: ADME, organism-based, Canis lupus familiaris; details: in vivo, 240 h
Rattus norvegicus [15] = test: as §1; type: functional; remark: listed apart in the source
Canis familiaris [16] = test: putrescine Distribution in liver was determined after DESPM dosing of 6.0 mg/kg/day for 4.5 days in dog(cu dose-52.4) and sacrificed at 75 days PLD(cu dose-27 mg/kg); type: ADME, organism-based, Canis lupus familiaris; details: in vivo, 1800 h
Rattus norvegicus [17] = test: Weight loss of rat over the 6-h experimental period when a dose of 4.7 mg/kg (11.6 administered; type: functional
Canis familiaris [18] = test: Spermidine Distribution in kidney was determined after DESPM dosing of 6.0 mg/kg/day for 4.5 days in dog(cu dose-52.4) and sacrificed at 10 days PLD(cu dose-27 mg/kg); type: ADME, organism-based, Canis lupus familiaris; details: in vivo, 240 h
Canis familiaris [19] = test: putrescine Distribution in liver was determined after DESPM dosing of 1.87 mg/kg/day for 28 days in dog(cu dose-52.4) and sacrificed at 75 days PLD(cu dose-52.4 mg/kg); type: ADME, organism-based, Canis lupus familiaris; details: in vivo, 1800 h
Canis familiaris [20] = test: putrescine Distribution in kidney was determined after DESPM dosing of 4.0 mg/kg/day for 13 days in dog and sacrificed at 75 days PLD(cu dose-52 mg/kg); type: ADME, organism-based, Canis lupus familiaris; details: in vivo, 1800 h
Canis familiaris [21] = test: Distribution in liver was determined after DEHSPM dosing of 2.0 mg/kg/day for 29 days in dog(cu dose-52.4) and sacrificed at 10 days PLD(cu dose-22 mg/kg); type: ADME, organism-based, Canis lupus familiaris; details: in vivo, 240 h
Canis familiaris [22] = test: Spermidine Distribution in liver was determined after DEHSPM dosing of 2.0 mg/kg/day for 29 days in dog(cu dose-52.4) and sacrificed at 10 days PLD(cu dose-58 mg/kg); type: ADME, organism-based, Canis lupus familiaris; details: in vivo, 240 h
Canis familiaris [23] = test: putrescine putrescine Distribution in kidney was determined after DEHSPM dosing of 2.0 mg/kg/day for 29 days in dog(cu dose-52.4) and sacrificed at 10 days PLD(cu dose-58 mg/kg); type: ADME, organism-based, Canis lupus familiaris; details: in vivo, 240 h
Canis familiaris [24] = test: Spermidine Distribution in liver was determined after DEHSPM dosing of 2.0 mg/kg/day […] in dog(cu dose-52.4) and sacrificed at 10 days PLD(cu dose-22 mg/kg); type: ADME, organism-based, Canis lupus familiaris; details: in vivo, 240 h
Canis familiaris [25] = test: HSPM Distribution in liver was determined after DEHSPM dosing of 2.0 mg/kg/day for 29 days in dog(cu dose-52.4) and sacrificed at 10 days PLD(cu dose-22 mg/kg); type: ADME, organism-based, Canis lupus familiaris; details: in vivo, 240 h
Canis familiaris [26] = test: Distribution in kidney was determined after DEHSPM dosing of 2.0 mg/kg/day for 29 days in dog(cu dose-52.4) and sacrificed at 10 days PLD(cu dose-22 mg/kg); type: ADME, organism-based, Canis lupus familiaris; details: in vivo, 240 h
Canis familiaris [27] = test: Distribution in liver was determined after DESPM dosing of 1.87 mg/kg/day for 28 days in dog(cu dose-52.4) and sacrificed at 75 days PLD(cu dose-52.4 mg/kg); type: ADME, organism-based, Canis lupus familiaris; details: in vivo, 1800 h
Canis familiaris [28] = test: Distribution in liver was determined after DESPM dosing of 6.0 mg/kg/day for 4.5 days in dog(cu dose-52.4) and sacrificed at 75 days PLD(cu dose-27 mg/kg); type: ADME, organism-based, Canis lupus familiaris; details: in vivo, 1800 h
Canis familiaris [29] = test: Spermine Distribution in kidney was determined after DEHSPM dosing of 2.0 mg/kg/day for 29 days in dog(cu dose-52.4) and sacrificed at 10 days PLD(cu dose-22 mg/kg); type: ADME, organism-based, Canis lupus familiaris; details: in vivo, 240 h
Canis familiaris [30] = test: MESPM/MEHSPH Distribution in kidney was determined after DEHSPM dosing of 2.0 mg/kg/day for 29 days in dog(cu dose-52.4) and sacrificed at 10 days PLD(cu dose-22 mg/kg); type: ADME, organism-based, Canis lupus familiaris; details: in vivo, 240 h
Canis familiaris [31] = test: MESPM/MEHSPH Distribution in liver was determined after DEHSPM dosing of 2.0 mg/kg/day for 29 days in dog(cu dose-52.4) and sacrificed at 10 days PLD(cu dose-58 mg/kg); type: ADME, organism-based, Canis lupus familiaris; details: in vivo, 240 h
Canis familiaris [32] = test: putrescine Distribution in kidney was determined after DEHSPM dosing of 2.0 mg/kg/day for 29 days in dog(cu dose-52.4) and sacrificed at 10 days PLD(cu dose-22 mg/kg); type: ADME, organism-based, Canis lupus familiaris; details: in vivo, 240 h
Canis familiaris [33] = test: Distribution in liver was determined after DESPM dosing of 8.0 mg/kg/day for 4.5 days in dog(cu dose-52.4) and sacrificed at 10 days PLD(cu dose-36 mg/kg); type: ADME, organism-based, Canis lupus familiaris; details: in vivo, 240 h

Compound: CCNCCCNCCCCNCCCNCC [BIS(ETHYL)SPERMINE]
- Wet weight of tissue (Canis familiaris [1]): 179 nM/g
- Reduction (Rattus norvegicus [2]): 100%
- Wet weight of tissue (Canis familiaris [3]): 1058 nM/g
- Wet weight of tissue (Canis familiaris [4]): 0 nM/g
- Weight loss (Rattus norvegicus [5]): <4.4 g
- Wet weight of tissue (Canis familiaris [6]): 6 nM/g
- Wet weight of tissue (Canis familiaris [7]): 848 nM/g
- Wet weight of tissue (Canis familiaris [8]): 7 nM/g
- Stool output (Rattus norvegicus [9]): <0.6 g (350g of rat weight)-1
- Wet weight of tissue (Canis familiaris [10]): 87 nM/g
- Wet weight of tissue (Canis familiaris [11]): 0 nM/g
- Wet weight of tissue (Canis familiaris [12]): 0 nM/g
- Wet weight of tissue (Canis familiaris [13]): 117 nM/g
- Wet weight of tissue (Canis familiaris [14]): 462 nM/g
- Reduction (Rattus norvegicus [15]): 81%
- Wet weight of tissue (Canis familiaris [16]): 101 nM/g
- Weight loss (Rattus norvegicus [17]): <7.5 g
- Wet weight of tissue (Canis familiaris [18]): 60 nM/g
- Wet weight of tissue (Canis familiaris [19]): 28 nM/g
- Wet weight of tissue (Canis familiaris [20]): 7 nM/g

Compound: CCNCCCCNCCCCNCCCCNCC [DIETHYLHOMOSPERMINE]
- Wet weight of tissue (Canis familiaris [21]): 0 nM/g
- Wet weight of tissue (Canis familiaris [22]): 50 nM/g
- Wet weight of tissue (Canis familiaris [23]): 5 nM/g
- Wet weight of tissue (Canis familiaris [24]): 68 nM/g
- Wet weight of tissue (Canis familiaris [25]): 668 nM/g
- Wet weight of tissue (Canis familiaris [26]): 0 nM/g
- Wet weight of tissue (Canis familiaris [27]): 0 nM/g
- Wet weight of tissue (Canis familiaris [28]): 0 nM/g
- Wet weight of tissue (Canis familiaris [29]): 611 nM/g
- Wet weight of tissue (Canis familiaris [30]): 3 nM/g
- Wet weight of tissue (Canis familiaris [31]): 72 nM/g
- Wet weight of tissue (Canis familiaris [32]): 0 nM/g
- Wet weight of tissue (Canis familiaris [33]): 29 nM/g
